Experimental findings from the NIST ThermoML archive (doi:10.1021/je060068f) are described below.

Structures are written as SMILES. Numbers after ± are expanded uncertainties.

For this series the following is noted: Liquid; pulse-heating method.
For the molecule `CCCCCOC(=O)c1ccccc1C(=O)OCCCCC`, the Critical pressure was 1430 ± 50 kPa and the Critical temperature amounted to 811 ± 9 K.

As for `CCCOC(=O)c1ccccc1C(=O)OCCC` [1,2-benzenedicarboxylic acid dipropyl ester], the Critical pressure turned out to be 1900 ± 70 kPa and the Critical temperature is on record as 784 ± 9 K.

On to `CCCCC(CC)COC(=O)c1ccccc1C(=O)OCC(CC)CCCC` (centres undefined) [bis(2-ethylhexyl) 1,2-benzenedicarboxylate], for which the Critical pressure is 1070 ± 40 kPa and the Critical temperature was 835 ± 9 K.

Take `CCCCOC(=O)c1ccccc1C(=O)OCCCC` [dibutyl phthalate]: the Critical pressure turned out to be 1660 ± 60 kPa and the Critical temperature is 797 ± 9 K.

Take `CCCCCCCCCCOC(=O)c1ccccc1C(=O)OCCCCCCCCCC` [didecyl phthalate]: the Critical pressure stood at 940 ± 30 kPa and the Critical temperature worked out at 870 ± 10 K.

With `CCOC(=O)c1ccccc1C(=O)OCC` [diethyl phthalate], the Critical pressure is on record as 2260 ± 80 kPa and the Critical temperature is 776 ± 9 K.

On to `CCCCCCCOC(=O)c1ccccc1C(=O)OCCCCCCC` [diheptyl phthalate], for which the Critical pressure was determined as 1240 ± 40 kPa and the Critical temperature is reported as 830 ± 9 K.

Take `CCCCCCOC(=O)c1ccccc1C(=O)OCCCCCC` [dihexyl phthalate]: the Critical pressure turned out to be 1340 ± 50 kPa and the Critical temperature was determined as 817 ± 9 K.

As for `COC(=O)c1ccccc1C(=O)OC` [dimethyl 1,2-benzenedicarboxylate], the Critical pressure is on record as 2770 ± 100 kPa and the Critical temperature amounted to 772 ± 9 K.

With `CCCCCCCCCOC(=O)c1ccccc1C(=O)OCCCCCCCCC` [dinonyl phthalate], the Critical pressure is 1020 ± 40 kPa and the Critical temperature was determined as 858 ± 9 K.

Consider `CCCCCCCCOC(=O)c1ccccc1C(=O)OCCCCCCCC` [dioctyl 1,2-benzenedicarboxylate], for which the Critical pressure is recorded as 1080 ± 40 kPa and the Critical temperature is on record as 840 ± 9 K.

On to `CCCCCCCCCCCOC(=O)c1ccccc1C(=O)OCCCCCCCCCCC` [diundecyl phthalate], for which the Critical pressure is on record as 890 ± 30 kPa and the Critical temperature was determined as 886 ± 10 K.
